How the values were obtained:
Format in all cases: physicochemical
[1] = Dynamic Vapor Sorption (DVS); details: for Change in Mass (%)-ref Desorption / Change in Mass (%)-ref Sorption / Change in Mass (%)-ref Hysteresis: DVS; for Change in Mass (%)-ref Desorption / Change in Mass (%)-ref Sorption: 25° C.
Protocol: Approximately, 10-20 mg of sample was placed into a mesh vapor sorption balance pan and loaded into a DVS Intrinsic dynamic vapor sorption balance by Surface Measurement Systems. The sample was subjected to a ramping profile from 40-90% relative humidity (RH) at 10% increments, maintaining the sample at each step until a stable weight had been achieved (dm/dt 0.004%, minimum step length 30 minutes, maximum step length 500 minutes) at 25° C. After completion of the sorption cycle, the sample was dried using the same procedure to 0% RH and then a second sorption cycle back to 40% RH. Two cycles were performed. The weight change during the sorption/desorption cycles were plotted, allowing for the hygroscopic nature of the sample to be determined. XRPD analysis was then carried out on any solid retained. The above technique was used to generate the images in FIG. 5, FIG. 6, FIG. 47 and FIG. 48.

[2] = Thermodynamic solubility in water at pH 4.2
Protocol: Thermodynamic solubility was carried out for Pattern 1, Pattern 2/6 mixture, Pattern 3, amorphous di-HCl salts and Pattern 7 in water at pH 4.2. All samples were prepared at 30 mg/mL. Initial observations were made. The samples were agitated at ambient temperature for ca. 24 hours. The samples were collected and observations made. Observed solids were isolated via centrifugation. The mother liquor from the filtered sample was analyzed by HPLC. The pH 4.3 solution was prepared by diluting glacial acetic acid (11.6 mL) to 100 mL in deionized water, then adding sodium acetate (1.07 g) and acetic acid solution (5.9 mL) preparing up to 500 mL with deionized water; then the pH was adjusted to 4.2. The above technique was used to generate the images in FIG. 60.

[3] = Dynamic Vapor Sorption (DVS); details: Cycle 3, sorption, 25° C.

- Change in Mass (%)-ref Desorption ([1]; Cycle 1, desorption, target RH 0%): 0.000%
- Change in Mass (%)-ref Desorption ([1]; Cycle 1, desorption, target RH 10%): 0.863%
- Change in Mass (%)-ref Desorption ([1]; Cycle 1, desorption, target RH 20%): 1.274%
- Change in Mass (%)-ref Desorption ([1]; Cycle 1, desorption, target RH 30%): 1.818%
- Change in Mass (%)-ref Desorption ([1]; Cycle 1, desorption, target RH 40%): 2.223%
- Change in Mass (%)-ref Desorption ([1]; Cycle 1, desorption, target RH 50%): 2.491%
- Change in Mass (%)-ref Desorption ([1]; Cycle 1, desorption, target RH 60%): 2.727%
- Change in Mass (%)-ref Desorption ([1]; Cycle 1, desorption, target RH 70%): 2.940%
- Change in Mass (%)-ref Desorption ([1]; Cycle 1, desorption, target RH 80%): 3.171%
- Change in Mass (%)-ref Desorption ([1]; Cycle 1, desorption, target RH 90%): 3.555%
- Change in Mass (%)-ref Sorption ([1]; Cycle 1, sorption, target RH 40%): 2.516%
- Change in Mass (%)-ref Sorption ([1]; Cycle 1, sorption, target RH 50%): 2.780%
- Change in Mass (%)-ref Sorption ([1]; Cycle 1, sorption, target RH 60%): 2.970%
- Change in Mass (%)-ref Sorption ([1]; Cycle 1, sorption, target RH 70%): 3.115%
- Change in Mass (%)-ref Sorption ([1]; Cycle 1, sorption, target RH 80%): 3.288%
- Change in Mass (%)-ref Sorption ([1]; Cycle 1, sorption, target RH 90%): 3.555%
- Change in Mass (%)-ref Hysteresis ([1]; Cycle 1, target RH 40%): −0.292%
- Change in Mass (%)-ref Hysteresis ([1]; Cycle 1, target RH 50%): −0.289%
- Change in Mass (%)-ref Hysteresis ([1]; Cycle 1, target RH 60%): −0.242%
- Change in Mass (%)-ref Hysteresis ([1]; Cycle 1, target RH 70%): −0.175%
- Change in Mass (%)-ref Hysteresis ([1]; Cycle 1, target RH 80%): −0.117%
- Change in Mass (%)-ref Desorption ([1]; Cycle 2, desorption, target RH 0%): 0.075%
- Change in Mass (%)-ref Desorption ([1]; Cycle 2, desorption, target RH 10%): 0.885%
- Change in Mass (%)-ref Desorption ([1]; Cycle 2, desorption, target RH 20%): 1.290%
- Change in Mass (%)-ref Desorption ([1]; Cycle 2, desorption, target RH 30%): 1.711%
- Change in Mass (%)-ref Desorption ([1]; Cycle 2, desorption, target RH 40%): 1.977%
- Change in Mass (%)-ref Desorption ([1]; Cycle 2, desorption, target RH 50%): 2.171%
- Change in Mass (%)-ref Desorption ([1]; Cycle 2, desorption, target RH 60%): 2.337%
- Change in Mass (%)-ref Desorption ([1]; Cycle 2, desorption, target RH 70%): 2.510%
- Change in Mass (%)-ref Desorption ([1]; Cycle 2, desorption, target RH 80%): 2.717%
- Change in Mass (%)-ref Desorption ([1]; Cycle 2, desorption, target RH 90%): 3.093%
- Change in Mass (%)-ref Sorption ([1]; Cycle 2, sorption, target RH 0%): 0.000%
- Change in Mass (%)-ref Sorption ([1]; Cycle 2, sorption, target RH 10%): 0.831%
- Change in Mass (%)-ref Sorption ([1]; Cycle 2, sorption, target RH 20%): 1.198%
- Change in Mass (%)-ref Sorption ([1]; Cycle 2, sorption, target RH 30%): 1.468%
- Change in Mass (%)-ref Sorption ([1]; Cycle 2, sorption, target RH 40%): 1.853%
- Change in Mass (%)-ref Sorption ([1]; Cycle 2, sorption, target RH 50%): 2.092%
- Change in Mass (%)-ref Sorption ([1]; Cycle 2, sorption, target RH 60%): 2.271%
- Change in Mass (%)-ref Sorption ([1]; Cycle 2, sorption, target RH 70%): 2.461%
- Change in Mass (%)-ref Sorption ([1]; Cycle 2, sorption, target RH 80%): 2.700%
- Change in Mass (%)-ref Sorption ([1]; Cycle 2, sorption, target RH 90%): 3.093%
- Change in Mass (%)-ref Hysteresis ([1]; Cycle 2, target RH 10%): 0.054%
- Change in Mass (%)-ref Hysteresis ([1]; Cycle 2, target RH 20%): 0.091%
- Change in Mass (%)-ref Hysteresis ([1]; Cycle 2, target RH 30%): 0.243%
- Change in Mass (%)-ref Hysteresis ([1]; Cycle 2, target RH 40%): 0.124%
- Change in Mass (%)-ref Hysteresis ([1]; Cycle 2, target RH 50%): 0.080%
- Change in Mass (%)-ref Hysteresis ([1]; Cycle 2, target RH 60%): 0.066%
- Change in Mass (%)-ref Hysteresis ([1]; Cycle 2, target RH 70%): 0.050%
- Change in Mass (%)-ref Hysteresis ([1]; Cycle 2, target RH 80%): 0.018%
- Change in Mass (%)-ref Sorption ([1]; Cycle 3, sorption, target RH 10%): 0.861%
- Change in Mass (%)-ref Sorption ([1]; Cycle 3, sorption, target RH 20%): 1.198%
- Change in Mass (%)-ref Sorption ([1]; Cycle 3, sorption, target RH 40%): 1.757%
- moisture adsorbed (DVS) ([1]; at 40% RH, listed as Pattern 3 scale-up): 2.5 wt %
- moisture adsorbed (DVS) ([1]; at 60% RH): 3.1 wt %
- mass increase by DVS ([1]; at 90% RH): ca. 4%
- moisture adsorbed (DVS) ([1]; at 90% RH, listed as Pattern 3 scale-up): 3.5 wt %
- mass increase by DVS ([1]; between 0% and 90% RH): 4%
- Observations at T = 24 hours ([2]; 30 mg/mL in water at pH 4.2, agitated at ambient temperature ca. 24 hours): Yellow solution
- Observations at T = 0 hours ([2]; 30 mg/mL in water at pH 4.2, ambient temperature, T = 0 hours): Yellow solution (dissolved
- Change in Mass (%)-ref Sorption ([3]; target RH 0%): 0.075%
- Change in Mass (%)-ref Sorption ([3]; target RH 30%): 1.443%
SMILES: CN1CCN(c2ccc(Nc3ncc4cc5n(c4n3)C3(CCCCC3)CNC5=O)nc2)CC1 [Pattern 3, 2′-((5-(4-methylpiperazin-1-yl)pyridin-2-yl)amino)-7′,8′-dihydro-6′H-spiro[cyclohexane-1,9′-pyrazino[1′,2′:1,5]pyrrolo[2,3-d]pyrimidin]-6′-one]

From patent publication US12534472B2, “Morphic forms of trilaciclib and methods of manufacture thereof” (Pharmacosmos Holding A/S, priority 2020, dated 2026)
